# Test results: patent US20090325959A1 (priority 2008, published 2009)
# Read-outs that look alike come from different tables or passages of the source.
# How the values were obtained:
# NIH/3T3 cells = test: NIH/3T3 cell morphology assay (actin cytoskeleton disruption); type: cell-based; conditions: score 0 (no effect) to 4 (complete disruption) of the actin cytoskeleton; 60 minutes
# Procedure: NIH/3T3 cells were grown in DMEM-H containing glutamine and 10% Colorado Calf Serum. Cells were passaged regularly prior to reaching confluence. Eighteen to 24 hours prior to experimentation, the cells were plated onto Poly-L-Lysine-coated glass bottom 24-well plates. On the day of experimentation, the cell culture medium was removed and was replaced with the same medium containing from 10 nM to 25 μM of the test compound, and the cells were incubated for 60 minutes at 37° C. The culture medium was then removed and the cells were washed with warmed PBS and fixed for 10 minutes with warmed 4% paraformaldehyde. The cells were permeabilized with 0.5% Triton-X, stained with TRITC-conjugated phalloidin and imaged using a Nikon Eclipse E600 epifluorescent microscope to determine the degree of actin disruption. Results were expressed as a numerical score indicating the observed degree of disruption of the actin cytoskeleton at the test concentration, ranging from 0 (no effect) to 4 (complete disruption), and were the average of at least 2 determinations.
# ROCK2 = target: T1, ROCK2 (Homo sapiens, UniProt O75116); test: Rho kinase inhibition assay (IMAP fluorescence polarization), ROCK2; type: biochemical;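 also: kinase reaction started with 10 µM ATP and run 60 min at room temperature, then phosphorylated substrate captured on IMAP beads for 30 min and fluorescence polarization read in mP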
# T1 construct: purchased Upstate/Chemicon 14-451
# Procedure: (§1) Following the pre-incubation, 10 μM ATP was added to initiate the reaction. After 60 minutes at room temperature, Molecular Devices IMAP™ binding solution was added to bind phosphorylated substrate. After 30 minutes of incubation in the presence of the IMAP™ beads, the fluorescence polarization was read and the ratio was reported as mP. IC50 values for compounds and EC50 values for ATP were calculated using the Prism software from Graphpad.
# ROCK1 = target: T2, ROCK1 (Homo sapiens, UniProt Q13464); test: Rho kinase inhibition assay (IMAP fluorescence polarization), ROCK1; type: biochemical;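 also: kinase reaction run 60 min at room temperature, then phosphorylated substrate captured on IMAP beads for 30 min, with fluorescence polarization read in mP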
# T2 construct: purchased Upstate/Chemicon 14-601
# Procedure: as §1
# [1] = Compound plasma concentrations in unsensitized mice at 15 min post administration; type: in vivo; conditions: mouse, 15 μmol/kg; mean compound plasma concentration in mice at 15 minutes post oral administration; read-out: Mouse Oral PK
# Procedure: Additionally, compound concentrations were determined in the plasma and lungs of male, ovalbumin-sensitized, Balb/c mice from a murine model of asthma. Test compounds were formulated in water or 1% polysorbate 80 and dosed at 15 μmol/kg for intraperitoneal (IP) or oral (PO) administration or formulated for intratracheal (IT) administration and dosed at 5 μmol/kg, which directly targets the lungs. Following completion of the in vivo study, mice were euthanized and blood and plasma collected approximately 2.5-3 hours post administration of test compound for bronchodialator (BD) studies and 24 hours post administration for anti-inflamatory (AI) studies. Lungs were homogenized in Matrix A lysing tubes using a FastPrep 24 tissue and cell homogenizer (MP Biomedicals, Solon, Ohio). Both plasma samples and lung extracts were assayed for compound concentrations using an on-line, solid phase extraction LC/MS/MS system.
# [2] = Rat oral pharmacokinetics (plasma); type: in vivo; conditions: 20-30 μmol/kg; for half-life: mean n = 3, read-out: t½ (converted)
# Procedure: Plasma (EDTA K2 anticoagulant) was collected from male, cannulated, CD Sprague Dawley rats to determine the pharmacokinetics of formulations containing compound inhibitors of Rho kinase. Each animal was dosed orally with a 4 ml/kg solution or suspension of each test compound in 10 mM acetate buffered saline, pH 4.5 at a final concentration range of 20-30 μmol/kg. Blood was collected at 0.25, 0.5, 1, 2, 4, 6, 8, and 24 hours. Plasma samples were assayed for the concentration of the test compound using an on-line, solid phase extraction LC/MS/MS analysis system.
# Samples were analyzed on a QSTAR Elite, hybrid quadrupole time-of-flight mass spectrometer (Applied Biosystems, Framingham, Mass.) coupled with a Symbiosis Pharma integrated, on-line SPE-HPLC system (Spark Holland Inc., Plainsboro, N.J.). Analyst QS 2.0 software was used for instrument control, data acquisition and processing. […] Mobile Phase A consisted of 0.1% ammonium hydroxide in water and Mobile Phase B consisted of 0.1% formic acid in acetonitrile. Pharmacokinetic analyses were performed using WinNonlin software version 5.2 (Pharsight Corporation, Mountain View, Calif.).
# As determined from the plasma concentration versus time curves, the time to peak and peak exposure are represented by the values Tmax and Cmax, respectively. The AUC values (nM*hr) shown were calculated as the areas under the plasma concentration versus time curves from time zero through the time of the last observable value and represent the total exposure of the compound over the course of the study. Half-life values or the amount of time required for the plasma levels of the compound to decline to half the initial value are represented as t½.
# p70S6K human enzyme = target: T3, p70S6K human enzyme (Homo sapiens, UniProt P23443, T412E); test: p70S6K inhibition assay (IMAP FP); type: biochemical;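 also: kinase reaction run at room temperature, phosphorylated substrate captured on IMAP beads and read as fluorescence polarization in mP, IC50 then converted to Ki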
# T3 construct: purchased Upstate Chemicon 14-486
# human neutrophils = test: Human neutrophil chemotaxis induced by fMLP (modified Boyden chamber); type: cell-based
# Text: This assay is an in vitro assay of neutrophil chemotaxis that can be used to evaluate the ability of Rho Kinase inhibitor compounds of Formula I or II to inhibit the migration of human neutrophils, an inflammatory cell that has been implicated in the pathophysiology of allergic conjunctivitis.
# Peripheral blood from healthy human volunteers was collected and the neutrophils were isolated by Ficoll-paque density centrifugation followed by dextran sedimentation and hypotonic lysis of the red blood cells. Neutrophil chemotaxis was assessed using a modified Boyden Chamber (Neuroprobe, 96-well) with a 3 μm pore polycarbonate membrane. The ability of the tested compounds to block chemotaxis induced by a 1 μM fMLP challenge during a one hour incubation at 37° C. with 5% CO2 was assessed in a dose response manner.
# Akt3 human enzyme = target: T4, Akt3 human enzyme (Homo sapiens, UniProt Q9Y243); test: Akt3 inhibition assay (IMAP FP); type: biochemical;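 also: kinase reaction run 60 min at room temperature after 30 µM ATP start, phosphorylated substrate captured on IMAP beads and read as fluorescence polarization (mP)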
# T4 construct: purchased Upstate Chemicon 14-502
# Procedure: Inhibition of Akt3 and p70S6K activity was determined using the IMAP™ FP Progressive Binding Kit (Molecular Devices product number R8127). […] Following the pre-incubation, 30 μM ATP was added to initiate the reaction. After 60 minutes at RT, Molecular Devices IMAP™ binding solution was added to bind phosphorylated substrate. After 30 minutes of incubation in the presence of the IMAP™ beads the fluorescence polarization was read and the ratio was reported as mP. IC50 results were calculated using the Prism software from Graphpad. The Ki values were determined according to the following formula: Ki=IC50/(1+([ATP Challenge]/EC50 ATP)).
# [3] = system: A-10 rat thoracic aorta cells; test: PDGF-stimulated smooth muscle cell proliferation assay (BrdU incorporation); type: cell-based; conditions: A-10 cells, 10 ng/mL PDGF, BrdU incorporation, percent of total challenge-stimulated proliferation; for Percent of PDGF Induced Proliferation at 1 μM Avg: 1 μM test compound; for Percent of PDGF Induced Proliferation at 10 μM Avg: 10 μM test compound;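 as to all read-outs here: cells kept in serum-free medium, BrdU allowed to incorporate for 24 h, then incorporated label detected fluorometrically with an anti-BrdU antibody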
# Procedure: Effects on cell proliferation were measured using a bromodeoxyuridine (BrdU) incorporation assay. […] Serum free media containing 01% BSA was added to the cells. 24 hours later the media was removed and replaced with warmed serum free media. […] Proliferation was then monitored using the BrdU Cell Proliferation Assay, HTS (Calbiochem cat. #t HTS01). BrdU was allowed to incorporate into cells for 24 hours prior to the addition of fixative/denaturing solution and the fluorometric detection of incorporated BrdU using a BrdU antibody as per manufacturer's directions. Data are reported as a percent of the PDGF-stimulated BrdU incorporation.
# [4] = 10 μM ATP, read-out: ROCK2 Ki, Avg
# [5] = male, CD Sprague Dawley, mean n = 3
# [6] = male, CD Sprague Dawley, mean n = 3, read-out: Cmax
# [7] = male, CD Sprague Dawley, mean n = 3, read-out: Tmax
# [8] = 30 μM ATP, Ki=IC50/(1+([ATP Challenge]/EC50 ATP)), read-out: p70S6K Ki, Avg
# [9] = average Ki, read-out: p70S6K Ki
# [10] = Neutrophil, 1 h, 1 μM fMLP challenge, one hour, read-out: Chemotaxis Avg. IC50
# [11] = average IC50 for inhibition of fMLP-induced neutrophil chemotaxis, read-out: Chemotaxis IC50
# [12] = 30 μM ATP, Ki=IC50/(1+([ATP Challenge]/EC50 ATP)), read-out: Akt3 Ki, Avg
# T1 sequence (O75116 11-552 limits assumed): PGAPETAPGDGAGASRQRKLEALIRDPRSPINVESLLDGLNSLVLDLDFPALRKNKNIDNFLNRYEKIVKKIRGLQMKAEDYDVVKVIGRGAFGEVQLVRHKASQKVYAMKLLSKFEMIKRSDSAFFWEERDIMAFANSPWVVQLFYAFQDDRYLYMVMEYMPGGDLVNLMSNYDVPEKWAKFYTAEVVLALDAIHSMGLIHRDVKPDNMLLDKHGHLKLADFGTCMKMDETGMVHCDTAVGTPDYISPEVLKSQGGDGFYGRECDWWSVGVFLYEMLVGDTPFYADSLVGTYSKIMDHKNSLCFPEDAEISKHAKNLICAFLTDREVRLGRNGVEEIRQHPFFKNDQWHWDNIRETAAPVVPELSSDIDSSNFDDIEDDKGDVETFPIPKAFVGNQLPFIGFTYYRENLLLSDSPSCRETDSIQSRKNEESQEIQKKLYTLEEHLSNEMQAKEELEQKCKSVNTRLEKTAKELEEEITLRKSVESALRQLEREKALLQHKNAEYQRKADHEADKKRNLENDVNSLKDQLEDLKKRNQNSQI
# T3 sequence (P23443 1-421 T412E limits assumed): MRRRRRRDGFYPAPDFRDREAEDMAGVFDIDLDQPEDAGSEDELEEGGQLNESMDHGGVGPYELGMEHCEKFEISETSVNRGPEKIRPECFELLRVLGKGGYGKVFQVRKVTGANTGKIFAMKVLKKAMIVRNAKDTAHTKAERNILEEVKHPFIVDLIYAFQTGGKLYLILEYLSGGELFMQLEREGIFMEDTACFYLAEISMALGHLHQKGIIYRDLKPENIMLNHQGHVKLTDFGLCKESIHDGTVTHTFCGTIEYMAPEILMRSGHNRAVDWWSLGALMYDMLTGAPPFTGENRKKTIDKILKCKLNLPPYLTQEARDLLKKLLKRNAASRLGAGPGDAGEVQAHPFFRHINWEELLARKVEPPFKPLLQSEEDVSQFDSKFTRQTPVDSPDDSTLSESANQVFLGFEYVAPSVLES
# T2 sequence (Q13464 17-535 limits assumed): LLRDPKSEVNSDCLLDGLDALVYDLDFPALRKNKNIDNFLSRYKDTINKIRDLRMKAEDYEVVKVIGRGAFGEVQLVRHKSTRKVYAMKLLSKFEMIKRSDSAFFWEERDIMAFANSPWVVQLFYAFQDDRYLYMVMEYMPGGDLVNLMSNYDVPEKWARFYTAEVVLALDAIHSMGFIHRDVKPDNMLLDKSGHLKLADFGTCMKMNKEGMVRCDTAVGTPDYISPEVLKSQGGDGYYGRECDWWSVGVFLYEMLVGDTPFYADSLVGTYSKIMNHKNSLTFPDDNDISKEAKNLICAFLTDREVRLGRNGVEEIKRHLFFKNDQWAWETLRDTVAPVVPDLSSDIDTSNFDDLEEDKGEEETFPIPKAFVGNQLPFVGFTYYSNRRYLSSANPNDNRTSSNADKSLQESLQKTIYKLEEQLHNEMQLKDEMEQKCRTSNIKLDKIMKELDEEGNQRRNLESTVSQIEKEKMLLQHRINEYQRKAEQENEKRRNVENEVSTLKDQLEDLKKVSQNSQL
# T4 sequence (Q9Y243 whole entry): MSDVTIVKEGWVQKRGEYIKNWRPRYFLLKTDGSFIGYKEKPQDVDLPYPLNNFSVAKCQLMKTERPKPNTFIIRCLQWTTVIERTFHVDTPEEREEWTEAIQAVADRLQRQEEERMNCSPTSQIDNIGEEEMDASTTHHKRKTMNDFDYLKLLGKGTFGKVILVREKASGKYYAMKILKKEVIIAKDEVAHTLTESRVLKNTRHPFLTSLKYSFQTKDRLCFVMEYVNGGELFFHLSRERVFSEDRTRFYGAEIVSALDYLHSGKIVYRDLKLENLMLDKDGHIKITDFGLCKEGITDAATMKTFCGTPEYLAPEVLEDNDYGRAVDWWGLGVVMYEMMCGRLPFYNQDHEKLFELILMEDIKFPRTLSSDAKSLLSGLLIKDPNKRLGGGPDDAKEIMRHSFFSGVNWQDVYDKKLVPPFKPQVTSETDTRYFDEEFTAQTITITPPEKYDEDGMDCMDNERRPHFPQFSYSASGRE
structure (smiles),measurement,setting,value
"CS(=O)(=O)c1cccc(CN2CCCC(Nc3ccc4[nH]ncc4c3)C2)c1 (stereo not drawn) [Compound 1.048, N-(1-(3-(methylsulfonyl)benzyl)piperidin-3-yl)-1H-indazol-5-amine]",Cell score at 1 μM,NIH/3T3 cells,1.5
"CS(=O)(=O)Nc1cccc(CN2CCCC(Nc3ccc4[nH]ncc4c3)C2)c1 (stereo not drawn) [Compound 1.051, N-(3-((3-(1H-indazol-5-ylamino)piperidin-1-yl)methyl)phenyl)methanesulfonamide]",Ki,ROCK2; [4],0.0038 µM
same,Cell score at 1 μM,NIH/3T3 cells,2.5
same,Ki,"ROCK1; Avg, 10 μM ATP",0.0372 µM
"OCCOc1cccc(CN2CCCC(Nc3ccc4[nH]ncc4c3)C2)c1 (stereo not drawn) [Compound 1.039, 2-(3-((3-(1H-indazol-5-ylamino)piperidin-1-yl)methyl)phenoxy)ethanol]",Ki,ROCK2; [4],0.0247 µM
same,Cell score at 1 μM,NIH/3T3 cells,2
same,Ki,"ROCK1; Avg, 10 μM ATP",0.209 µM
"COc1ccc(CN2CCC(Nc3cccc4cnccc34)C2)cc1 (stereo not drawn) [Compound 2.017, N-(1-(4-methoxybenzyl)pyrrolidin-3-yl)isoquinolin-5-amine]",Cell score at 1 μM,NIH/3T3 cells,2
"Clc1ccc(CN2CCC(Nc3cccc4cnccc34)C2)cc1Cl (stereo not drawn) [Compound 2.016, N-(1-(3,4-dichlorobenzyl)pyrrolidin-3-yl)isoquinolin-5-amine]",Ki,ROCK2; [4],0.0424 µM
same,Cell score at 1 μM,NIH/3T3 cells,1.8
same,Ki,"ROCK1; Avg, 10 μM ATP",0.101 µM
"OCCOc1cccc(CN2CC[C@@H](Nc3cccc4cnccc34)C2)c1 [Compound 2.039, (R)-2-(3-((3-(isoquinolin-5-ylamino)pyrrolidin-1-yl)methyl)phenoxy)ethanol]",concentration at 15 min,[1],0.092 µM
same,Vz_F,[2]; mean n = 3,59.4 L/kg
same,AUC(0-t),[2]; [5],905 nM·h
same,Cmax,[2]; [6],0.783 µM
same,Tmax,[2]; [7],19.8 min
same,half-life,"[2]; male, CD Sprague Dawley",67.8 min
same,Ki,ROCK2; [4],0.0067 µM
same,Ki,"ROCK2; average Ki, read-out: ROCK2 Ki",0.0067 µM
same,Ki,p70S6K human enzyme; [8],1.01 µM
same,Ki,p70S6K human enzyme; [9],1.01 µM
same,IC50,human neutrophils; [10],1.64 µM
same,IC50,human neutrophils; [11],1.6 µM
same,Ki,Akt3 human enzyme; [12],1.99 µM
same,Ki,"Akt3 human enzyme; average Ki, read-out: Akt3 Ki",1.99 µM
same,Ki,"ROCK1; Avg, 10 μM ATP",0.0188 µM
same,Ki,ROCK1; average Ki,0.0188 µM
"CCS(=O)(=O)Nc1cccc(CN2CCC[C@H](Nc3ccc4[nH]ncc4c3)C2)c1 [Compound 1.124, (S)-N-(3-((3-(1H-indazol-5-ylamino)piperidin-1-yl)methyl)phenyl)ethanesulfonamide]",concentration at 15 min,[1],0.118 µM
same,Vz_F,[2]; mean n = 3,93.4 L/kg
same,AUC(0-t),[2]; [5],535 nM·h
same,Cmax,[2]; [6],0.415 µM
same,Tmax,[2]; [7],30 min
same,half-life,"[2]; male, CD Sprague Dawley",83.4 min
same,Ki,ROCK2; [4],0.0033 µM
same,Ki,"ROCK2; average Ki, read-out: ROCK2 Ki",0.0033 µM
same,Ki,p70S6K human enzyme; [8],3.33 µM
same,Ki,p70S6K human enzyme; [9],3.33 µM
same,Percent of PDGF Induced Proliferation at 1 μM Avg,[3],68.5%
same,Percent of PDGF Induced Proliferation at 10 μM Avg,[3],61.6%
same,IC50,human neutrophils; [10],3.4 µM
same,IC50,human neutrophils; [11],3.4 µM
same,Ki,Akt3 human enzyme; [12],7.87 µM
same,Ki,"Akt3 human enzyme; average Ki, read-out: Akt3 Ki",7.87 µM
same,Ki,"ROCK1; Avg, 10 μM ATP",0.0645 µM
same,Ki,ROCK1; average Ki,0.0645 µM
"c1ccc(CN2CCC(Nc3cccc4cnccc34)C2)cc1 (stereo not drawn) [Compound 2.006, N-(1-benzylpyrrolidin-3-yl)isoguinolin-5-amine]",Cell score at 1 μM,NIH/3T3 cells,2.8
"CCS(=O)(=O)Nc1cccc(CN2CCC[C@@H](Nc3ccc4[nH]ncc4c3)C2)c1 [Compound 1.123, (R)-N-(3-((3-(1H-indazol-5-ylamino)piperidin-1-yl)methyl)phenyl)ethanesulfonamide]",concentration at 15 min,[1],0.071 µM
same,Vz_F,[2]; mean n = 3,14.8 L/kg
same,AUC(0-t),[2]; [5],2060 nM·h
same,Cmax,[2]; [6],2.04 µM
same,Tmax,[2]; [7],19.8 min
same,half-life,"[2]; male, CD Sprague Dawley",54 min
same,Ki,ROCK2; [4],0.0096 µM
same,Ki,"ROCK2; average Ki, read-out: ROCK2 Ki",0.0096 µM
same,Ki,p70S6K human enzyme; [8],2.81 µM
same,Ki,p70S6K human enzyme; [9],2.81 µM
same,IC50,human neutrophils; [10],3.05 µM
same,IC50,human neutrophils; [11],3.1 µM
same,Ki,Akt3 human enzyme; [12],2.41 µM
same,Ki,"Akt3 human enzyme; average Ki, read-out: Akt3 Ki",2.41 µM
same,Ki,"ROCK1; Avg, 10 μM ATP",0.0823 µM
same,Ki,ROCK1; average Ki,0.0823 µM
"C#Cc1ccc(CN2CCCC(Nc3ccc4[nH]ncc4c3)C2)cc1 (stereo not drawn) [Compound 1.034, N-(1-(4-ethynylbenzyl)piperidin-3-yl)-1H-indazol-5-amine]",Ki,ROCK2; [4],0.0053 µM
same,IC50,human neutrophils; [10],5.6 µM
same,Cell score at 1 μM,NIH/3T3 cells,2
same,Ki,"ROCK1; Avg, 10 μM ATP",0.036 µM
"Cc1ccc(CN2CCCC(Nc3ccc4[nH]ncc4c3)C2)c(C)c1 (stereo not drawn) [Compound 1.024, N-(1-(2,4-dimethylbenzyl)piperidin-3-yl)-1H-indazol-5-amine]",Cell score at 1 μM,NIH/3T3 cells,2.4
"Clc1ccc(CN2CCC(Nc3ccc4[nH]ncc4c3)C2)cc1Cl (stereo not drawn) [Compound 1.062, N-(1-(3,4-dichlorobenzyl)pyrrolidin-3-yl)-1H-indazol-5-amine]",Cell score at 1 μM,NIH/3T3 cells,2.3
"CS(=O)(=O)c1ccc(CN2CCC(Nc3ccc4[nH]ncc4c3)C2)cc1 (stereo not drawn) [Compound 1.004, N-(1-(4-(methylsulfonyl)benzyl)pyrrolidin-3-yl)-1H-indazol-5-amine]",Cell score at 1 μM,NIH/3T3 cells,1.8
"CCc1ccc(CN2CCC[C@@H](Nc3ccc4[nH]ncc4c3)C2)cc1 [Compound 1.136, (R)-N-(1-(4-ethylbenzyl)piperidin-3-yl)-1H-indazol-5-amine]",AUC (0-last),[2]; mean n = 3,BLQ
same,Cmax,[2]; mean n = 3,BLQ
same,Tmax,[2]; mean n = 3,BLQ
same,Vz_F,[2]; mean n = 3,BLQ
same,t½,[2]; mean n = 3,BLQ
same,Ki,ROCK2; [4],0.0054 µM
same,Ki,"ROCK2; average Ki, read-out: ROCK2 Ki",0.0051 µM
same,Ki,p70S6K human enzyme; [8],1.24 µM
same,Ki,p70S6K human enzyme; [9],1.24 µM
same,IC50,human neutrophils; [10],2.6 µM
same,IC50,human neutrophils; [11],2.6 µM
same,Ki,Akt3 human enzyme; [12],0.29 µM
same,Ki,"Akt3 human enzyme; average Ki, read-out: Akt3 Ki",0.29 µM
same,Ki,"ROCK1; Avg, 10 μM ATP",0.0403 µM
same,Ki,ROCK1; average Ki,0.0258 µM
"OCc1ccc(CN2CCCC(Nc3ccc4[nH]ncc4c3)C2)cc1 (stereo not drawn) [Compound 1.025, (4-((3-(1H-indazol-5-ylamino)piperidin-1-yl)methyl)phenyl)methanol]",Cell score at 1 μM,NIH/3T3 cells,2
"CSc1ccc(CN2CC[C@@H](Nc3cccc4cnccc34)C2)cc1 [Compound 2.026, (R)-N-(1-(4-(methylthio)benzyl)pyrrolidin-3-yl)isoquinolin-5-amine]",concentration at 15 min,[1],0.629 µM
same,AUC (0-last),[2]; mean n = 3,BLQ
same,Cmax,[2]; mean n = 3,BLQ
same,Tmax,[2]; mean n = 3,BLQ
same,Vz_F,[2]; mean n = 3,BLQ
same,t½,[2]; mean n = 3,BLQ
same,Ki,ROCK2; [4],0.013 µM
same,Ki,"ROCK2; average Ki, read-out: ROCK2 Ki",0.013 µM
same,Ki,p70S6K human enzyme; [8],0.536 µM
same,Ki,p70S6K human enzyme; [9],0.536 µM
same,Percent of PDGF Induced Proliferation at 1 μM Avg,[3],74.5%
same,Percent of PDGF Induced Proliferation at 10 μM Avg,[3],52.0%
same,IC50,"human neutrophils; Neutrophil, 1 h, read-out: Chemotaxis Avg. IC50",3.8 µM
same,IC50,"human neutrophils; Neutrophil, read-out: Chemotaxis IC50",3.8 µM
same,Ki,Akt3 human enzyme; [12],2.08 µM
same,Ki,"Akt3 human enzyme; average Ki, read-out: Akt3 Ki",2.08 µM
same,Ki,"ROCK1; Avg, 10 μM ATP",0.038 µM
same,Ki,ROCK1; average Ki,0.038 µM
"Cc1cccc(CN2CCCC(Nc3ccc4[nH]ncc4c3)C2)c1 (stereo not drawn) [Compound 1.066, N-(1-(3-methylbenzyl)piperidin-3-yl)-1H-indazol-5-amine]",Cell score at 1 μM,NIH/3T3 cells,2
"CSc1ccc(CN2CCCC(Nc3ccc4[nH]ncc4c3)C2)cc1 (stereo not drawn) [Compound 1.008, N-(1-(4-(methylthio)benzyl)piperidin-3-yl)-1H-indazol-5-amine]",Ki,ROCK2; [4],0.0039 µM
same,Cell score at 1 μM,NIH/3T3 cells,2
same,Ki,"ROCK1; Avg, 10 μM ATP",0.0305 µM
"Oc1cccc(CN2CCCC(Nc3ccc4[nH]ncc4c3)C2)c1 (stereo not drawn) [Compound 1.046, 3-((3-(1H-indazol-5-ylamino)piperidin-1-yl)methyl)phenol]",Cell score at 1 μM,NIH/3T3 cells,2.5
"FC(F)(F)c1cccc(CN2CCC(Nc3cccc4cnccc34)C2)c1 (stereo not drawn) [Compound 2.018, N-(1-(3-(trifluoromethyl)benzyl)pyrrolidin-3-yl)isoquinolin-5-amine]",Cell score at 1 μM,NIH/3T3 cells,1.8
"CS(=O)(=O)Cc1cccc(CN2CCCC(Nc3ccc4[nH]ncc4c3)C2)c1 (stereo not drawn) [Compound 1.041, N-(1-(3-(methylsulfonylmethyl)benzyl)piperidin-3-yl)-1H-indazol-5-amine]",Cell score at 1 μM,NIH/3T3 cells,2.5
"c1cc2cc(CN3CCCC(Nc4ccc5[nH]ncc5c4)C3)ccc2o1 (stereo not drawn) [Compound 1.052, N-(1-(benzofuran-5-ylmethyl)piperidin-3-yl)-1H-indazol-5-amine]",Cell score at 1 μM,NIH/3T3 cells,2.8
